Experimental data as given in PMC5831858, “Pharmacological characterisation of CR6086, a potent prostaglandin E2 receptor 4 antagonist, as a new potential disease-modifying anti-rheumatic drug” (Arthritis Research & Therapy, 2018).

How the values were obtained:
VEGF gene expression = VEGF gene expression in THP-1 cells differentiated to macrophages; type: cell-based; conditions: Homo sapiens, LPS 10 ng/ml + PGE2 10 nM, read-out: IC50 transcription of VEGF
Method: The human monocyte cell line THP-1 was obtained from the ATCC and was grown according to the instructions provided. THP-1 monocytic cells were differentiated to macrophages with 100 nM phorbol 12-myristate 13-acetate (PMA) for 4 days. Macrophages were then stimulated with lipopolysaccharide (LPS) 10 ng/ml and PGE2 10 nM for 3 or 24 h. Total RNA was purified using the ABI Prism 6100 Nucleic Acid PrepStation (Applied Biosystems, Foster City, CA, USA) and retrotranscribed using the High-Capacity cDNA Reverse Transcription Kit (Thermo Fisher Scientific). RT-PCR analysis was performed using the Applied Biosystems 7500 Fast Real-Time PCR System using specific TaqMan assays (number Hs00174131_m1 for IL-6, number Hs00900054_m1 for vascular endothelial growth factor A [VEGFA]; Thermo Fisher Scientific) and, as an endogenous control, the 18S Pre-Developed TaqMan® Assay (Thermo Fisher Scientific). The data analysis, with normalisation on 18S amplified values, was done following Thermo Fisher Scientific’s specific instructions for gene expression relative quantification. All individual data are the result of at least three different analyses for each sample.

EP2 = biological target: T1, EP2 (Homo sapiens, UniProt P43116); assay: Eicosanoid receptor EP2 binding; conditions: [^3H]PGE2, HEK-293 cells, read-out: CR6086 Activity at 10µM
T1 construct: host or cells: HEK-293 cells

FP = FP (Homo sapiens, UniProt P43088); assay: Eicosanoid receptor FP binding; conditions: [^3H]PGF2α, HEK-293 cells, read-out: CR6086 Activity at 10µM
IP (PGI2) = IP (PGI2) (Homo sapiens, UniProt P43119); assay: Eicosanoid receptor IP binding; conditions: [^3H]iloprost, HEK-293 cells, read-out: CR6086 Activity at 10µM
Sequence of IP (PGI2) (P43119 whole entry): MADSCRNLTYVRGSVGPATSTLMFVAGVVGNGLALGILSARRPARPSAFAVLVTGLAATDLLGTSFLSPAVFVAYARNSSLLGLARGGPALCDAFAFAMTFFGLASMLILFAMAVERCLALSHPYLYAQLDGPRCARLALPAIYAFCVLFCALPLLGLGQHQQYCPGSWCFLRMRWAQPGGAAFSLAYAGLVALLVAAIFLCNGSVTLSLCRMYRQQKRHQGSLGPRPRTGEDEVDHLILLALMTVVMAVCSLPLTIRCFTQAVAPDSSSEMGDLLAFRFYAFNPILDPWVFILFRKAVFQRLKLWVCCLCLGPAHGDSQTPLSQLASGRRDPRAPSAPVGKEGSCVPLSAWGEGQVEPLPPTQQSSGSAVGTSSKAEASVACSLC

CysLT2 (Cys-LTs) = CysLT2 (Cys-LTs) (Homo sapiens, UniProt Q9NS75); assay: Eicosanoid receptor CysLT2 binding; conditions: [^3H]LTD4, HEK-293 cells, read-out: CR6086 Activity at 10µM
COX-1 = biological target: T2, COX-1 (Homo sapiens, UniProt P23219); assay: Cyclooxygenase COX-1 enzymatic activity; type: biochemical; conditions: Sf9 cells, read-out: CR6086 Activity at 10µM
T2 construct: host or cells: Sf9 cells
T2 sequence (P23219 24-599): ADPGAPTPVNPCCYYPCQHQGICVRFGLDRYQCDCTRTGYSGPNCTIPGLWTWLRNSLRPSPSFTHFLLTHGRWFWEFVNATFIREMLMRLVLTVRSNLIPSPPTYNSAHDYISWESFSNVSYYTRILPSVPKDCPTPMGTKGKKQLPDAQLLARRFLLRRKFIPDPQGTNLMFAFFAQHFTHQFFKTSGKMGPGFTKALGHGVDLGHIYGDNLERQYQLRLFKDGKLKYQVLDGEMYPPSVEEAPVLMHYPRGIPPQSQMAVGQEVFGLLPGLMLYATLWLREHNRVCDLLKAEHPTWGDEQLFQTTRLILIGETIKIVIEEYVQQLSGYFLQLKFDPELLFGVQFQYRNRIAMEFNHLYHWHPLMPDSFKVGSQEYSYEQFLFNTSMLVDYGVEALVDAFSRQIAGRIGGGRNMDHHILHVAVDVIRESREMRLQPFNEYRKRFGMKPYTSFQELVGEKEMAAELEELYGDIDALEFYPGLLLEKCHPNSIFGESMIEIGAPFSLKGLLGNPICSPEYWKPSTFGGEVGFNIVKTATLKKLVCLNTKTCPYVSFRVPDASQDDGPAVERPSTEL

COX-2 = biological target: T3, COX-2 (Homo sapiens, UniProt P35354); assay: Cyclooxygenase COX-2 enzymatic activity; type: biochemical; conditions: Sf9 cells, read-out: CR6086 Activity at 10µM
T3 construct: host or cells: Sf9 cells
T3 sequence (P35354 18-604): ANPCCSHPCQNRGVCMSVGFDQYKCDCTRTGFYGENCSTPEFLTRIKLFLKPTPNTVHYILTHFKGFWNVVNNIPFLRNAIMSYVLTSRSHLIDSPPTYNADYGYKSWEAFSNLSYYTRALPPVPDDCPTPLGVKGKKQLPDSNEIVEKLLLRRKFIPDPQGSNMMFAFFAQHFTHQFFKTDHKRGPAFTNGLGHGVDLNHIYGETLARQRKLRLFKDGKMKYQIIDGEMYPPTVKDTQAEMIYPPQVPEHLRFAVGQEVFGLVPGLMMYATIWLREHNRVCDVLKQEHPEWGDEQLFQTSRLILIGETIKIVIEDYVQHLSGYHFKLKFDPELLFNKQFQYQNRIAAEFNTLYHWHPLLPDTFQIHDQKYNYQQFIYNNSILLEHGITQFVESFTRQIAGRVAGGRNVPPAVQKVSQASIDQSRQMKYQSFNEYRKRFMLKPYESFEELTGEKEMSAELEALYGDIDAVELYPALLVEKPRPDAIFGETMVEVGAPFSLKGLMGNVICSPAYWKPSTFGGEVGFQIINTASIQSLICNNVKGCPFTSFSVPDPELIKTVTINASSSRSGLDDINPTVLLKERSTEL

A1 = A1 (Homo sapiens, UniProt P30542); assay: Adenosine receptor A1 binding; conditions: [^3H]DPCPX, Human recombinant CHO cells, read-out: CR6086 Activity at 10µM
A3 = A3 (Homo sapiens, UniProt P0DMS8); assay: Adenosine receptor A3 binding; conditions: [^125I]AB-MECA, Human recombinant HEK-293 cells, read-out: CR6086 Activity at 10µM
α1 (non-selective) = assay: Adrenergic receptor α1 binding; conditions: [^3H]prazosin, Rat cerebral cortex
CB1 = CB1 (Homo sapiens, UniProt P21554); assay: Cannabinoid receptor CB1 binding; conditions: [^3H]CP 55940, Human recombinant CHO cells, read-out: CR6086 Activity at 10µM
M4 = M4 (Homo sapiens, UniProt P08173); assay: Muscarinic acetylcholine receptor M4 binding; conditions: [^3H]4-DAMP, Human recombinant CHO cells, read-out: CR6086 Activity at 10µM
Sequence of M4 (P08173 whole entry): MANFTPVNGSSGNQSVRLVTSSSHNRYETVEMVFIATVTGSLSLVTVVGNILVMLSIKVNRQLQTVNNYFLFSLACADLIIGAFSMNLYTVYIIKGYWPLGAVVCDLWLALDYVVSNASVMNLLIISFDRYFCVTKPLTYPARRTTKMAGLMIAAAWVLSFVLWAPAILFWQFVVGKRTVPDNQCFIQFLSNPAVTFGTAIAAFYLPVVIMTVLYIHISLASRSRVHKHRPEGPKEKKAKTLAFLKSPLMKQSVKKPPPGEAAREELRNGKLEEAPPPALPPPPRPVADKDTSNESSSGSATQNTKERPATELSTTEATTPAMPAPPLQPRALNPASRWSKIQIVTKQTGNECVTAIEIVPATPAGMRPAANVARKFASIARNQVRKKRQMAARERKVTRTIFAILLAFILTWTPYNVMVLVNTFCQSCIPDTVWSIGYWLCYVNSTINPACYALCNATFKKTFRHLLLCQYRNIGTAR

5-HT1A = 5-HT1A (Homo sapiens, UniProt P08908); assay: Serotonin receptor 5-HT1A binding; conditions: [^3H]8-OH-DPAT, Human recombinant HEK-293 cells, read-out: CR6086 Activity at 10µM
Sequence of 5-HT1A (P08908 whole entry): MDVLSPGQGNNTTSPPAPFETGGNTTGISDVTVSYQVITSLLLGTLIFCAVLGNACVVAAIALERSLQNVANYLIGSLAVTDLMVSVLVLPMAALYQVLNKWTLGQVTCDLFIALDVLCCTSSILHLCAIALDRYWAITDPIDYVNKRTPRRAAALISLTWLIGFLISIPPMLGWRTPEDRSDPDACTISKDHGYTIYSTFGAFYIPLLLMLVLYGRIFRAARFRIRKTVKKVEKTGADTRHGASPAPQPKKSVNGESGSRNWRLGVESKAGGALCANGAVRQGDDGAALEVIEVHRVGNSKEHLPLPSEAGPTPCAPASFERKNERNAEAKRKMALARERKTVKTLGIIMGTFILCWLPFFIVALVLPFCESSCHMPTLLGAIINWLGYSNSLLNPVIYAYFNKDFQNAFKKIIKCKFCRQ

5-HT1B = 5-HT1B (Rattus norvegicus, UniProt P28564); assay: Serotonin receptor 5-HT1B binding; conditions: [^125I]CYP (+30µM isoproterenol), Rat cerebral cortex, read-out: CR6086 Activity at 10µM
5-HT2B = 5-HT2B (Homo sapiens, UniProt P41595); assay: Serotonin receptor 5-HT2B binding; conditions: [^125I](±)DOI, Human recombinant CHO cells, read-out: CR6086 Activity at 10µM
Sequence of 5-HT2B (P41595 whole entry): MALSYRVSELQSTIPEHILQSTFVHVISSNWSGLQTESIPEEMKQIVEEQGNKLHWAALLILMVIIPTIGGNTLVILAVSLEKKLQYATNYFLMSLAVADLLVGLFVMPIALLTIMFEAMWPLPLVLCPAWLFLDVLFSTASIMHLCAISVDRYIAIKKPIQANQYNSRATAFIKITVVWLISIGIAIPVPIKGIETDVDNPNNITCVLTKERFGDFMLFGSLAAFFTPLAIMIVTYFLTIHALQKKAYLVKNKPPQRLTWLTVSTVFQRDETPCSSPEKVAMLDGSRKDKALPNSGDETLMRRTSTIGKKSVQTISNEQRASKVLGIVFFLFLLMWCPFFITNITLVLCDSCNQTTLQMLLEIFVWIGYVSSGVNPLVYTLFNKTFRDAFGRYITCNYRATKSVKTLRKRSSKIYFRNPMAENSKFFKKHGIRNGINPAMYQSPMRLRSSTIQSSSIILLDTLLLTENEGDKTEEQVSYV

P2Y = assay: Purinergic receptor P2Y binding; conditions: [^35S]dATPαS, Rat cerebral cortex
MT1 (ML1A) = MT1 (ML1A) (Homo sapiens, UniProt P48039); assay: MT1 receptor binding; conditions: [^125I]2-iodomelatonin, Human recombinant CHO cells, read-out: CR6086 Activity at 10µM
σ (non-selective) = assay: σ receptor (non-selective) binding; conditions: [^3H]DTG, Rat cerebral cortex
ETB = ETB (Homo sapiens, UniProt P24530); assay: Endothelin receptor ETB binding; conditions: [^125I]endothelin-1, Human recombinant CHO cells, read-out: CR6086 Activity at 10µM
Y1 = Y1 (Homo sapiens, UniProt P25929); assay: Neuropeptide Y receptor Y1 binding; conditions: [^125I]peptide YY, SK-N-MC cells (endogenous), read-out: CR6086 Activity at 10µM
Sequence of Y1 (P25929 whole entry): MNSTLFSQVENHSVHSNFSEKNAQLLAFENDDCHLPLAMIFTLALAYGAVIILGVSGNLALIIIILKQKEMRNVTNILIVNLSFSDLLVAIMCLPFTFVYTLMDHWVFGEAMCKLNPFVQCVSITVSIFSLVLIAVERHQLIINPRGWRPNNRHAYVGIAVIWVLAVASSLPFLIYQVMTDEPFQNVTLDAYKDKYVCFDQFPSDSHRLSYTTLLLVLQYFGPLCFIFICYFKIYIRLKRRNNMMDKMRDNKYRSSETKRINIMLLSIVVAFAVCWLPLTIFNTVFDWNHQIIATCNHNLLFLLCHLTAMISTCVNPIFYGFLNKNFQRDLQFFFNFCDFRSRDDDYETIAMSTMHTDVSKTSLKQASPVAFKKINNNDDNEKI

PAC1 (PACAP) = PAC1 (PACAP) (Homo sapiens, UniProt P41586); assay: PAC1 receptor binding; conditions: [^125I]PACAP1-27, Human recombinant CHO cells, read-out: CR6086 Activity at 10µM
Sequence of PAC1 (PACAP) (P41586 21-468): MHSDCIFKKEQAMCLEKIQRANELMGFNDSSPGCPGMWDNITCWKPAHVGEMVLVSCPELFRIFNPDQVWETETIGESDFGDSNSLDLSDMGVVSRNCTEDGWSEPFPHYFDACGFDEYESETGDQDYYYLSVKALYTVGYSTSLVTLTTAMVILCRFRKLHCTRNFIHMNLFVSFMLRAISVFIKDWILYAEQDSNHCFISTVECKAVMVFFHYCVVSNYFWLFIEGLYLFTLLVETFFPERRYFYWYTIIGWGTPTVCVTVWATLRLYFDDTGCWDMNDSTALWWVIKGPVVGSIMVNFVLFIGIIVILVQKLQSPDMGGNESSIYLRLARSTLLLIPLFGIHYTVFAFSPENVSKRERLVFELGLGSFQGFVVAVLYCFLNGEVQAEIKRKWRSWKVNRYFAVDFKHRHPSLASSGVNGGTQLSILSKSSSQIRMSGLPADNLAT

V1a = V1a (Homo sapiens, UniProt P37288); assay: V1a receptor binding; conditions: [^3H]AVP, Human recombinant CHO cells, read-out: CR6086 Activity at 10µM
Sequence of V1a (P37288 whole entry): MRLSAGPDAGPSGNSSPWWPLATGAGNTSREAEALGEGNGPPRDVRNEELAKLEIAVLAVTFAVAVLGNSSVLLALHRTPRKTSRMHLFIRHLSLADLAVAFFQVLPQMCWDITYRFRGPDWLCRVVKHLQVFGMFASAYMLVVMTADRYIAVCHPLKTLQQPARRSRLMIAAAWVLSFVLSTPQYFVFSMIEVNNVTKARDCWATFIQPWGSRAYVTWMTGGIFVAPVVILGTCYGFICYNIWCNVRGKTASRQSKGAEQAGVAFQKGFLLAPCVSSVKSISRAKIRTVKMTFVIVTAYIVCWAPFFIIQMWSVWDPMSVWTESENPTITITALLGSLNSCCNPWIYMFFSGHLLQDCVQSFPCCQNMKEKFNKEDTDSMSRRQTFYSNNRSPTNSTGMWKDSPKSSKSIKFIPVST

VPAC1 (VIP1) = VPAC1 (VIP1) (Homo sapiens, UniProt P32241); assay: VPAC1 receptor binding; conditions: [^125I]VIP, Human recombinant CHO cells, read-out: CR6086 Activity at 10µM
Kv channel = assay: Ion channel Kv binding; conditions: [^125I]α-dendrotoxin, Rat cerebral cortex
SKCa channel = assay: Ion channel SKCa binding; conditions: [^125I]apamin, Rat cerebral cortex
Dopamine transporter = Dopamine transporter (Homo sapiens, UniProt Q01959); assay: Dopamine transporter binding; conditions: [^3H]BTCP, Human recombinant CHO cells, read-out: CR6086 Activity at 10µM
Sequence of Dopamine transporter (Q01959 whole entry): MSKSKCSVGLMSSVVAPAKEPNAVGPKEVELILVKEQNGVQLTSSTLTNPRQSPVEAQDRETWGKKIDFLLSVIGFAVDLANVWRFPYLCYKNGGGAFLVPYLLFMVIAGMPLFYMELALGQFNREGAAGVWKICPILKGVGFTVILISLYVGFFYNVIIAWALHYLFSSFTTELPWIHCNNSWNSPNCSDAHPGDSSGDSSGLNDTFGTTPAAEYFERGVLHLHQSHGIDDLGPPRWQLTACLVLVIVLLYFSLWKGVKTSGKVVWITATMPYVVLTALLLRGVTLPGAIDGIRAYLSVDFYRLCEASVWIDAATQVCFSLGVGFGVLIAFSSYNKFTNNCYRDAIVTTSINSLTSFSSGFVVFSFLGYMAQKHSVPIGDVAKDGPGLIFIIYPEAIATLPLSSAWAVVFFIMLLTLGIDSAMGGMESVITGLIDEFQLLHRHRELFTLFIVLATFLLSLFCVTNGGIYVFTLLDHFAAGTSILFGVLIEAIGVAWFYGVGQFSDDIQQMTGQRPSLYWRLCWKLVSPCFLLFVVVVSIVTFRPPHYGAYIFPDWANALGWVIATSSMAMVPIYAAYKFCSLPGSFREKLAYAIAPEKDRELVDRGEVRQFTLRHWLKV

Structure (SMILES): O=C([O-])c1ccc(C2(NC(=O)[C@H]3CC4(CCN3Cc3ccc(C(F)(F)F)cc3)CC4)CC2)cc1.[Na+] [CR6086, Sodium (R)-4-(1-(6-(4-(trifluoromethyl)benzyl)-6-azaspiro[2.5]octane-5-carboxamido)cyclopropyl)benzoate]
- IC50 (VEGF gene expression): 25 nM
- inhibition at 10 µM (EP2): < 20%
- inhibition at 10 µM (FP): < 20%
- inhibition at 10 µM (IP (PGI2)): < 20%
- inhibition at 10 µM (CysLT2 (Cys-LTs)): < 20%
- inhibition at 10 µM (COX-1): < 20%
- inhibition at 10 µM (COX-2): < 20%
- inhibition at 10 µM (A1): < 20%
- inhibition at 10 µM (A3): < 20%
- CR6086 Activity at 10µM (α1 (non-selective)): IN (IN = < 20% displacement or inhibition (all tables))
- inhibition at 10 µM (CB1): < 20%
- inhibition at 10 µM (M4): < 20%
- inhibition at 10 µM (5-HT1A): < 20%
- inhibition at 10 µM (5-HT1B): < 20%
- inhibition at 10 µM (5-HT2B): < 20%
- CR6086 Activity at 10µM (P2Y): IN (IN = < 20% displacement or inhibition (all tables))
- inhibition at 10 µM (MT1 (ML1A)): < 20%
- CR6086 Activity at 10µM (σ (non-selective)): IN (IN = < 20% displacement or inhibition (all tables))
- inhibition at 10 µM (ETB): < 20%
- inhibition at 10 µM (Y1): < 20%
- inhibition at 10 µM (PAC1 (PACAP)): < 20%
- inhibition at 10 µM (V1a): < 20%
- inhibition at 10 µM (VPAC1 (VIP1)): < 20%
- CR6086 Activity at 10µM (Kv channel): IN (IN = < 20% displacement or inhibition (all tables))
- CR6086 Activity at 10µM (SKCa channel): IN (IN = < 20% displacement or inhibition (all tables))
- inhibition at 10 µM (Dopamine transporter): < 20%
